This is an account of results in publication PMC11676834, “Composition of Triterpene Glycosides of the Far Eastern Sea Cucumber Cucumaria conicospermium Levin et Stepanov; Structure Elucidation of Five Minor Conicospermiumosides A3-1, A3-2, A3-3, A7-1, and A7-2; Cytotoxicity of the Glycosides Against Human Breast Cancer Cell Lines; Structure–Activity …” (Marine Drugs, 2024).

In general, IC50 refers to the concentration needed to halve the response being measured. Usually inhibition stands for the change of the read-out against control, counted positive when it falls.

Data set [1] relates to human erythrocytes. As to the kind of experiment: Hemolytic activity. In kind it is cell-based. The note with it: 1 h at 37 °C; for HC50: Erythrocyte, read-out: ED50, Erythrocytes (hemolytic activity). How it is done:
Human blood (B(III) Rh+) was used to obtain erythrocytes by centrifuging 450× g three times for 5 min with phosphate-buffered saline (PBS) (pH 7.4) at 4 °C on centrifuge LABOFUGE 400R (Heraeus, Hanau, Germany). Ice-cold PBS (pH 7.4) was used for resuspension of erythrocytes residue to a final optical density of 1.5 at 700 nm, which was kept on ice. Then, 10 µL of tested compound solution or control (okhotoside A1-1 (7)) were added to 90 µL of erythrocyte suspension in V-bottom 96-well plates and exposed for 1 h at 37 °C. Next, centrifugation at 900× g for 10 min on a laboratory centrifuge LMC-3000 (Biosan, Riga, Latvia), led to separation of layers, and 80 µL of supernatant was carefully decanted and transferred into new flat-plate for each. The values of erythrocyte lysis were measured on microplate photometer Multiskan FC (Thermo Fisher Scientific, Waltham, MA, USA) at λ = 570 nm as hemoglobin concentration in supernatant. The effective dose, causing lysis of 50% erythrocytes (ED50), was calculated with SigmaPlot 14.0 software. All the experiments were carried out in triple repetitions, p ≤ 0.05.

A short description of data set [2]: in vitro. It counts as cell-based, human. The note with it: human. From the text:
(§1) Human erythrocytes were purchased from the Station of Blood Transfusion, Vladivostok. Human mammary epithelial cell line MCF-10A CRL-10317, human breast cancer cell lines T-47D HTB-133, MCF-7 HTB-22, and MDA-MB-231 CRM-HTB-26 were received from ATCC (Manassas, VA, USA). Culturing conditions: medium of RPMI-1640 with 1% penicillin/streptomycin (Biolot, St. Petersburg, Russia) and 10% fetal bovine serum (FBS) (Biolot, St. Petersburg, Russia) for the T-47D cell line; Minimum Essential Medium (MEM) with 1% penicillin/streptomycin sulfate (Biolot, St. Petersburg, Russia) and FBS (Biolot, St. Petersburg, Russia) to a final concentration of 10% for MCF-7 and MDA-MB-231 cells; DMEM/F12 medium with 10% FBS, 20 ng/mL EGF, […] hydrocortisone, 100 ng/mL cholera toxin, 10 μg/mL insulin, and 1% penicillin/streptomycin (BioinnLabs, Rostov-on-Don, Russia) for MCF-10A cell line.
(§2) The concentrations of tested glycosides were 0.1–50 µM; positive controls were cisplatin and okhotoside A1-1 (7). […] Then, the solutions of tested compounds with medium were replaced by 100 µL of fresh medium, and 10 µL of 3-(4,5-dimethylthiazol-2-yl)-2,5-diphenyltetrazolium bromide (MTT) (PanReac, AppliChem, Darmstadt, Germany) stock solution (5 mg/mL) was added to each well and incubated for 4 h, followed by the addition of 100 µL of SDS-HCl solution (1 g SDS/10 mL d-H2O/17 µL 6 N HCl) and further incubated for 18 h. Multiskan FC microplate photometer (Thermo Fisher Scientific, Waltham, MA, USA) was used to measure the absorbance of the converted dye formazan at 570 nm. The concentration caused the 50% cell metabolic activity inhibition (IC50) expresses the cytotoxic activity of each glycoside. The experiments were conducted in triplicate, p ≤ 0.05.

The test system of data set [3] is MCF-10A cells. As to the kind of experiment: Colony formation (clonogenic) assay, MCF-10A. In kind it is cell-based, human. How it is done:
(§3) The influence of glycosides on colony formation by MCF-10A or MDA-MB-231 cells was tested by the clonogenic assay. Cell density: 0.3 × 10^2/mL for MDA-MB-231 and for MCF-10A cells per well; incubation conditions: 10–12 days, 37 °C, atmosphere with 5% CO2; obtained: visible to eye colonies (at least 50 cells per colony); fixation with methanol (25 min); staining with 0.5% solution of crystal violet (25 min); washing and air-drying of plates. The counting of grown colonies was carried out using a BIO-PRINT-Cx4 Edge-Fixed Pad-Container (Vilber, Collégien, France) using Bio-Vision Software user and service manual-v18.01 (Vilber, Collégien, France). The results are presented as colony inhibition in comparison with the control.

Data set [4] deals with MCF-7 cells. As to the kind of experiment: cells. It counts as cell-based, human. The following applies: MTT, 24 h, read-out: Cytotoxicity, IC50, MCF-7.
Source text: as §1
(§4) The concentrations of tested glycosides were 0.1–50 µM; positive controls were cisplatin and okhotoside A1-1 (7). Methodology: to each well of 96-well plates, the cell suspension (180 µL) with solution (20 µL) of tested glycoside in a certain concentration was placed (MCF-10A, MCF-7, T-47D, and MDA-MB-231—7 × 10^3 cells per well) and incubated in the atmosphere with 5% CO2 at 37 °C for 24 h. Then, the solutions of tested compounds with medium were replaced by 100 µL of fresh medium, and 10 µL of 3-(4,5-dimethylthiazol-2-yl)-2,5-diphenyltetrazolium bromide (MTT) (PanReac, AppliChem, Darmstadt, Germany) stock solution (5 mg/mL) was added to each well and incubated for 4 h, followed by the addition of 100 µL of SDS-HCl solution (1 g SDS/10 mL d-H2O/17 µL 6 N HCl) and further incubated for 18 h. Multiskan FC microplate photometer (Thermo Fisher Scientific, Waltham, MA, USA) was used to measure the absorbance of the converted dye formazan at 570 nm. The concentration caused the 50% cell metabolic activity inhibition (IC50) expresses the cytotoxic activity of each glycoside. The experiments were conducted in triplicate, p ≤ 0.05.

In data set [5] the test system is T-47D cells. As to the kind of experiment: cells. In kind it is cell-based, human. The following applies: MTT, 24 h, read-out: Cytotoxicity, IC50, T-47D.
Source text: as §1, §4

In data set [6] the test system is MDA-MB-231 cells. As to the kind of experiment: cells. In kind it is cell-based, human.
Source text: as §1, §2

In data set [7] the test system is MDA-MB-231 cells. As to the kind of experiment: Wound scratch migration assay. It counts as cell-based, human. The note with it: 24 h. The method, then:
Attached to special migration plate plastic bottom MDA-MB-231 cells were separated by a silicone insert (Culture-insert 2 Well 24, ibiTreat). After removing an insert, the gap between the cells was 500 ± 50 μm. Cell debris and floating cells were deleted, and the fresh culture medium was added. Then, cells were treated with various concentrations of glycosides or culture medium only (vehicle control) and left for 24 hrs. Cell migration into the wound area was observed under a fluorescence microscope (MIB-2-FL, LOMO, Russia) with objective 10× magnification.

Data set [8] relates to MCF-10A cells. As to the kind of experiment: in vitro. It counts as cell-based, human.
Source text: as §1, §2

The subject of data set [9] is MDA-MB-231 cells. As to the kind of experiment: Colony formation (clonogenic) assay, MDA-MB-231. In kind it is cell-based, human. The note with it: 1 μM, inhibition out of control. The method, then:
as §3

The mark [10] stands for this setting: 48 h, read-out: Cytotoxicity, IC50, 48 h, MCF-10A.
Setting [11] is: 72 h, read-out: Cytotoxicity, IC50, 72 h, MCF-10A.
Setting [12] is: MTT, 24 h, read-out: Cytotoxicity, IC50, MCF-10A.
Where [13] appears, read: Homo sapiens, MDA-MB-231, 48 h, read-out: Cytotoxicity, IC50, 48 h, MDA-MB-231.
Where [14] appears, read: Homo sapiens, MDA-MB-231, 72 h, read-out: Cytotoxicity, IC50, 72 h, MDA-MB-231.
[15] abbreviates: Homo sapiens, MDA-MB-231, MTT, 24 h, read-out: Cytotoxicity, IC50, MDA-MB-231.
Where [16] appears, read: 48 h, read-out: Cytotoxicity, IC50, 48 h, MDA-MB-231.
Setting [17] is: 72 h, read-out: Cytotoxicity, IC50, 72 h, MDA-MB-231.
The mark [18] stands for this setting: MTT, 24 h, read-out: Cytotoxicity, IC50, MDA-MB-231.

Like-named read-outs stand apart in the source and are kept apart here. Where only a bound is given, the exact number is not on record here.

As for `CO[C@@H]1[C@@H](O)[C@H](O[C@@H]2[C@@H](O)[C@H](O[C@H]3[C@H](O)[C@@H](O[C@@H]4OC[C@@H](O)[C@H](O)[C@H]4O)[C@H](O[C@H]4[C@H](O[C@H]5CC[C@]6(C)C7=CC[C@]8(C)[C@@H]([C@@](C)(O)C(=O)CC=C(C)C)CC[C@@]8(C)C7CC[C@H]6C5(C)C)OC[C@@H](OS(=O)(=O)[O-])[C@@H]4O)O[C@@H]3C)O[C@H](COS(=O)(=O)[O-])[C@H]2O)O[C@H](COS(=O)(=O)[O-])[C@H]1O.[Na+].[Na+].[Na+]` (stereo partly drawn) [Conicospermiumoside A7-1 (4), 3β-O-{6-O-sodium sulfate-3-O-methyl-β-D-glucopyranosyl-(1→3)-6-O-sodium sulfate-β-D-glucopyranosyl-(1→4)-[(1→2)-β-D-xylopyranosyl]-β-D-quinovopyranosyl-(1→2)-4-O-sodium sulfate-β-D-xylopyranosyl}-(20R)-hydroxy-22-oxo-lanosta-9(11),24-diene], the HC50 in data set [1] was 360 ± 40 nM. For the same compound, the IC50 in data set [2] (setting [10]) is 35.5 ± 1.59 µM; in data set [2] (setting [11]), 11.1 ± 0.57 µM; in data set [2] (setting [12]) it was 40.2 ± 2.1 µM; in [4] (Homo sapiens, MCF7), above 50 µM; in [5] (Homo sapiens, T47D) it was 19.7 ± 1.01 µM; in data set [6] (setting [13]) it was 15.3 ± 1.01 µM. The results for the IC50 in data set [6] (setting [14]) and in data set [6] (setting [15]) were 11.2 ± 0.73 µM and 4.78 ± 0.23 µM, respectively. The “Influence on colony formation and growth of MCF-10A cells” value in data set [3] (2 μM) is on record as “did not influence”. The “Tumor cell selectivity index (SI), IC50 MCF-10A / IC50 MDA-MB-231” value in [6] (48 h) is 2.32; in [6] (72 h), 0.99.
Consider `C=C(C)CCC[C@]1(C)OC(=O)C23CC[C@H]4C(=CC[C@H]5C(C)(C)C(O[C@@H]6OC[C@@H](OS(=O)(=O)O)[C@H](O)[C@H]6O[C@@H]6O[C@H](CO)[C@@H](O[C@@H]7O[C@H](CO)[C@@H](O)[C@H](O[C@@H]8O[C@H](CO)[C@@H](O)[C@H](OC)[C@H]8O)[C@H]7O)[C@H](O)[C@H]6O[C@@H]6OC[C@@H](O)[C@H](O)[C@H]6O)CC[C@]45C)[C@]2(C)C[C@H](OC(C)=O)C31` (stereo partly shown) [Okhotoside B1 (8), okhotoside B1], for which the HC50 in [1] came to 1050 ± 120 nM. For the same compound, the IC50 amounted to 15.5 ± 0.81 µM in data set [2] (setting [10]); 16.5 ± 0.98 µM in data set [2] (setting [11]); 41 ± 0.81 µM in data set [2] (setting [12]); 42.9 ± 2 µM in data set [4] (Homo sapiens, MCF7); 20.3 ± 0.85 µM in [5] (Homo sapiens, T47D); 11.7 ± 1 µM in [6] (setting [13]). Further, the 50% inhibitory concentration (IC50) came to 2.92 ± 0.07 µM in data set [6] (setting [14]) and 11.3 ± 0.2 µM in [6] (setting [15]). The “Constraint on cell motility (migration) of MDA-MB-231 cells” value in data set [7] (5 μM) is 97%. The inhibition at 5 µM in data set [3] (Homo sapiens, MCF-10A, 5 μM, % of the control) turned out to be 40.2%. Further, the results for the “Tumor cell selectivity index (SI), IC50 MCF-10A / IC50 MDA-MB-231” value in data set [6] (24 h), in data set [6] (48 h) and in [6] (72 h) were 3.61, 1.32 and 5.65, respectively.
Regarding “DS-okhotoside A1-1 [DS-okhotoside A1-1 (7a)]”, the “ED50, Erythrocytes (hemolytic activity)” value in data set [1] amounted to 0.24 ± 0.02 µM. Moreover, the IC50 is 5.18 ± 0.28 µM in data set [8] (setting [10]); 3.87 ± 0.24 µM in [8] (setting [11]); 7.81 ± 0.32 µM in [8] (setting [12]); 18.8 ± 1.02 µM in data set [4]; 7.8 ± 0.31 µM in data set [5]; 4.32 ± 0.3 µM in data set [6] (setting [16]). Moreover, the IC50 in [6] (setting [17]) was 2.73 ± 0.18 µM; in [6] (setting [18]) it was 2.83 ± 0.36 µM. Further, the “Inhibition of colony growth of MDA-MB-231 cells” value in [9] is on record as 97.2%. The “Inhibition of migration of MDA-MB-231 cells as compared with control” value in data set [7] (0.5 μM) is given as 61.2%. Moreover, the “Constraint on cell motility (migration) of MDA-MB-231 cells” value in data set [7] (1 μM) is on record as 85%. Besides, the “Tumor cell selectivity index (SI), IC50 MCF-10A / IC50 MDA-MB-231” value is given as 2.76 in data set [6] (24 h), 1.20 in data set [6] (48 h) and 1.42 in data set [6] (72 h).
For the compound “DS-okhotoside B1 [DS-okhotoside B1 (8a)]”, in data set [1], the “ED50, Erythrocytes (hemolytic activity)” value is listed as 0.33 ± 0.03 µM. Moreover, the IC50 in data set [8] (setting [10]) is 5.81 ± 0.46 µM; in data set [8] (setting [11]) it was 2.77 ± 0.25 µM; in [8] (setting [12]), 9.87 ± 0.73 µM; in [4], 18.8 ± 0.71 µM; in data set [5] it was 9.62 ± 0.3 µM; in [6] (setting [16]), 2.63 ± 0.14 µM. The IC50 came to 0.6 ± 0.03 µM in data set [6] (setting [17]) and 1.09 ± 0.08 µM in data set [6] (setting [18]). Besides, the “Influence on colony formation and growth of MCF-10A cells” value in data set [3] (0.5 μM) is “did not influence”. The “Tumor cell selectivity index (SI), IC50 MCF-10A / IC50 MDA-MB-231” value in data set [6] (24 h) is 9.06; in data set [6] (24 h, listed as 8a), around 10; in [6] (48 h) it was 2.21; in data set [6] (72 h) it was 4.62.
